Earlier results, collected in patent US20170128401A1, “DIETARY COMPOSITION FOR IMPROVED PERFORMANCE” (priority 2015, published 2017).

Legend:
[1] = 750 mg dose; 85% VO2 max
[2] = test system: subjects; conditions: 400 mg of phosphatidylserine
[3] = test system: healthy adults; conditions: in vivo
[4] = test system: healthy adults; conditions: in vivo; remark: listed apart in the source

Molecule	increase time to exhaustion in anaerobic events [1]	decrease in wrong answers (test accuracy) [2]	increase in correct answers (test accuracy) [2]	increase speed of calculations [2]	VO2max [3]	carbohydrate absorption [4]
phosphatidylserine	29%+/−8	39%	13%	20%		
O=C(O[C@@H]1Cc2c(O)cc(O)cc2O[C@@H]1c1cc(O)c(O)c(O)c1)c1cc(O)c(O)c(O)c1 [EGCG, epigallocatechin gallate]					increased	significantly decreased
